Laboratory results reported in patent US6031071A, “Methods of generating novel peptides” (Biophage, Inc., priority 1996, dated 2000).
“Also recorded” adds a separate entry of the source.

Key:
[1] = biological target: phage V6 (peptide V6) binding to doxorubicin; test: Displacement assay: inhibition of V6 phage binding to doxorubicin-BSA coated wells by drugs; details: for IC50: read-out: IC50 for inhibiting the binding of phages V6 to doxorubicin; for blocking/displacement of the interaction of the phage with doxorubicin: result in words
Protocol: Phage V6 (10^10 virions) was preincubated for 1 hr at room temperature in 100 μl of 0.1% BSA/PBS buffer containing different drug concentrations (10^-4 M to 10^-9 M), and aliquots were added to microtiter wells, which were […] with doxorubicin-BSA as previously described in Example II. After a 1-h incubation at room temperature, the wells were washed 12 times with PBS and the remaining bound phages eluted with 50 μl of 0.1 M HCl (pH adjusted to 2.2 with glycine). The phages were quantitated by titration on log phase of E. coli K91Kan cells plated on LB plates with […] tetracycline (Parmley & Smith, Gene, 73: 305-318 (1988)).

[2] = ELISA of phage binding to immobilized doxo-BSA, detected with polyclonal anti-phage serum; details: result in words
Protocol: In order to characterize the binding of individual clones, four different clones V6, V10, V12 and A4 together with the control phage X1 were analyzed for binding to doxorubicin in an ELISA experiment in which polyclonal anti-phage antibodies were used to detect bound phages. Antisera were raised against fd-Tet phage lacking insertion into pIII. Three rabbits were injected intramuscularly with 0.5 mg of fd-ted phages in Freunds complete adjuvant and then boosted three times with 0.25 mg of fd-ted phages in incomplete adjuvant at 3 weeks intervals. The titer of the antisera was measured with an ELISA using phage immobilized in Maxisorb microtiter wells as described (Motti et al., Gene, 146: 91-198 (1994)). All rabbits produced high titer antisera after the second boost. […]
Phages from the second PEG precipitation (Parmley & Smith, Gene, 73: 305-318 (1988)) were dissolved in 210 μl of 0.15 M NaCl, microfuged for 1 min, precipitated from 200 μl of the supernatant by the addition of 21.2 μl of 1 M acetic acid, and by incubation for 10 min at room temperature and 10 min on ice. […] Phage concentration was determined as described in Parmley & Smith, Gene, 73: 305-318 (1988). […] To reveal the reaction, 100 μl of ABTS solution (Kirkegaard & Perry Labs, Maryland, USA) were added, incubated for 30 min at room temperature, and read in a microplate reader. […]

[3] = ELISA control empty wells (plastic binding)
Protocol: Phages from the second PEG precipitation (Parmley & Smith, Gene, 73: 305-318 (1988)) were dissolved in 210 μl of 0.15 M NaCl, microfuged for 1 min, precipitated from 200 μl of the supernatant by the addition of 21.2 μl of 1 M acetic acid, and by incubation for 10 min at room temperature and 10 min on ice. (Scott & Smith, Science, 249: 386-390 (1990)). Phages were sedimented (microfuged, 45 min, 4 C.) and dissolved in 60 μl of TBS. Phage concentration was determined as described in Parmley & Smith, Gene, 73: 305-318 (1988). These partially purified phages were subjected to one round of screening, except that the phages were not acid eluted. Instead, blocking solution [250 μl of nonfat dry milk ([…]) in 0,05% TWEEN20 ™/TBS (TWEEN20 ™: Polysorbate 20)] was added to the wells. After a 2-h incubation at room temperature, wells were washed three times in 0.05% TWEEN20 ™/TBS. Rabbit anti-phage fd-ted serum, 100 μl of a 1:1000 dilution (in blocking solution) was added to wells and incubated overnight. Wells were washed seven times in 0.05% TWEEN20 ™/TBS and once with TBS; 100 μl of a peroxidase-conjugated goat anti-rabbit immunoglobulin were then added (Kirkegaard & Perry Labs, Maryland, USA, diluted 1:1000). […] To reveal the reaction, 100 μl of ABTS solution (Kirkegaard & Perry Labs, Maryland, USA) were added, incubated for 30 min at room temperature, and read in a microplate reader. […]

[4] = phage V6 10^10 virions preincubated 1 hr with drug 10^-4 M to 10^-9 M, doxorubicin-BSA coated wells

Row | Compound | IC50 [1, 4] [nM] | blocking/displacement of the interaction of the phage with doxorubicin [1] | IC50 for inhibiting the binding of phages V6 to doxorubicin [1, 4] | binding of display phage to doxorubicin (ELISA, OD405) [2] | binding of phage to plastic [3]
1 | COc1cccc2c1C(=O)c1c(O)c3c(c(O)c1C2=O)C[C@@](O)(C(=O)CO)C[C@@H]3O[C@H]1C[C@H](N)[C@H](O)[C@H](C)O1 [doxorubicin] | 4.5 | could be blocked | – | – | –
2 | CC[C@]1(O)C[C@@H]2CN(CCc3c([nH]c4ccccc34)[C@@](C(=O)OC)(c3cc4c(cc3OC)N(C)[C@H]3[C@@](O)(C(=O)OC)[C@H](OC(C)=O)[C@]5(CC)C=CCN6CC[C@]43[C@@H]65)C2)C1 [vinblastine] | 1.5 | displaced; also recorded: could be blocked | – | – | –
3 | Nc1ccn([C@@H]2O[C@H](CO)[C@@H](O)[C@@H]2O)c(=O)n1 [Ara-C] | – | – | essentially inactive | – | –
4 | VCDWWGWGIC [phage V6] | – | – | – | strong specific binding | only background binding
